Laboratory results taken from US9913838B2, “Methods of treating cancer using compositions comprising perillyl alcohol derivative” (NEONC TECHNOLOGIES INC., priority 2010, dated 2018).
Entries after “also recorded” stand apart in the source; their conditions may differ.

Experiments:
[1] = tested on: TMZ resistant (U251TR) U251 cells; assay: Colony forming assay, TMZ resistant U251TR cells; format: cell-based, human; conditions: in words
Description: Colony forming assays were carried out after cells were treated with TMZ alone, POH alone, and the TMZ-POH conjugate. […] Cancer Lett. 2011 Mar. 28; 302(2):100-8.

[2] = tested on: MGMT; assay: Western blot of MGMT protein levels in MDA-MB-468 cells; format: cell-based, human; conditions: in words
Description: In FIG. 21C, MDA-MB-468 cells were treated with the indicated concentrations of TMZ-POH, TMZ, or O6-BG for 17 hours before harvest of cellular lysates. vh.=cells treated with vehicle only.
(§1) Total cell lysates were analyzed by Western blot analysis as described in P. Pyrko et al. Downregulation of survivin expression and concomitant induction of apoptosis by celecoxib and its non-cyclooxygenase-2-inhibitory analog, dimethyl-celecoxib (DMC), in tumor cells in vitro and in vivo. Mol Cancer 5 (2006) 19. The primary antibodies were purchased from Cell Signaling Technology (Beverly, Mass.) or Santa Cruz Biotechnology, Inc. (Santa Cruz, Calif.) and used according to the manufacturers' recommendations. All immunoblots were repeated at least once to confirm the results.
The major cytotoxic DNA lesion set by TMZ is methylation of O6-guanine, and it is well known that removal of this methyl group by MGMT leads to rapid degradation of the DNA repair protein.

[3] = tested on: a variant of MDA-MB-231; assay: In vitro sensitivity of the cell line used in vivo; format: cell-based; conditions: Homo sapiens, in vitro sensitivity to TMZ
[4] = in vitro and in vivo; cited from earlier work
[5] = CSF versus systemic circulation; cited from earlier work
[6] = tested on: TMZ resistant cells (U251TR); assay: MTT cytotoxicity assay, U251TR cells; format: cell-based, human; conditions: in words
Excerpt: (§2) Cancer Lett. 2011 Mar. 28; 302(2):100-8.

[7] = tested on: normal astrocytes; assay: MTT cytotoxicity assay, normal astrocytes; format: cell-based; conditions: in words
Excerpt: as §2

[8] = tested on: brain endothelial cells (BEC; confluent and subconfluent); assay: MTT cytotoxicity assay, brain endothelial cells; format: cell-based; conditions: in words
Excerpt: as §2

[9] = tested on: tumor brain endothelial cells (TuBEC); assay: MTT cytotoxicity assay, tumor brain endothelial cells; format: cell-based; conditions: in words
Excerpt: as §2

[10] = tested on: USC-04 glioma cancer stem cells; assay: cells; conditions: read-out: cytotoxicity with 1050
Description: MTT cytotoxicity assays were carried out after cells were treated with the TMZ alone, POH alone, or the TMZ-POH conjugate. The MTT cytotoxicity assays were carried out as described in Chen T C, et al. Green tea epigallocatechin gallate enhances therapeutic efficacy of temozolomide in orthotopic mouse glioblastoma models. Cancer Lett. 2011 Mar. 28; 302(2):100-8.

[11] = tested on: CHOP; assay: Western blot of ER stress in TMZ sensitive and resistant U251 glioma cells; format: cell-based, human
Description: Western blots were performed after TMZ sensitive and resistant glioma cells were treated with the TMZ-POH conjugate for 18 hr.

[12] = tested on: γ-H2AX; assay: Western blot of DNA damage marker in MDA-MB-231 cells; format: cell-based, human; conditions: MDA-MB-231, 50 μM, time course of 72 hours; in words
Description: (§3) Actin was used as a loading control.
as §1

[13] = tested on: γ-H2AX; assay: Western blot of DNA damage marker in MCF7 cells; format: cell-based, human; conditions: MCF-7, 50 μM, 48 hours, in words
Description: as §3, §1

[14] = tested on: γ-H2AX, activated caspase 7 and cleaved PARP; assay: DNA damage and cell death marker analysis in MDA-MB-231 cells (Western blot); format: cell-based, human; conditions: in words
Description: FIGS. 25A-25B show DNA damage and cell death marker analysis, where MDA-MB-231 cells were used for Western blot analysis of expression levels for markers of DNA damage (γ-H2AX) and cell death (activated caspase 7 and cleaved PARP). In FIG. 25A, cells were treated with 15 μM TMZ-POH and harvested every 24 hours up to 6 days; control cells remained untreated, or received vehicle (vh.) only. In FIG. 25B, cells were treated with 20 μM of either TMZ-POH, TMZ, or POH individually, or with 20 μM TMZ combined with 20 μM POH (TMZ+POH) and harvested after 24 hours or 5 days; control cells remained untreated, or received vehicle (vh.) only. In the case of caspase 7, only the activated (cleaved) form is shown (cl. C-7).
as §1
It is known that GBM cells treated with physiological concentrations of TMZ (<100 μM) in vitro can survive for several (5-7) days seemingly unaffected before substantial cell death becomes apparent. We observed a similar phenotype when breast cancer cell lines were treated with TMZ-POH, i.e., cell cultures only began to deteriorate approximately a week after the onset of drug treatment. In order to characterize TMZ-POH-induced cell death in greater detail, we treated MDA-MB-231 cells with 15 μM of the drug and collected cell lysates daily over the course of 6 days. The lysates were analyzed by Western blot for the presence of two apoptosis markers, cleaved (i.e. activated) caspase 7 and cleaved PARP-1 (poly ADP-ribose polymerase-1), along with the DNA damage marker γ-H2AX.
As shown in FIGS. 20A-20B above, an equimolar combination of TMZ+POH was unable to achieve the same potency in blocking colony survival as the TMZ-POH conjugate. […] We treated cells with the same concentration (20 μM) of TMZ-POH, TMZ, POH, or TMZ combined with POH (TMZ+POH), and analyzed the induction of γ-H2AX, activated caspase 7, and cleaved PARP. […] Thus, the results from the cell survival assay (FIGS. 20A-20B) correlated closely with the effects of these compounds on DNA damage and apoptosis markers (FIG. 25B), and in all cases TMZ-POH clearly generated the strongest anticancer impact.

[15] = tested on: MGMT-negative cell lines; assay: Colony formation assay, MGMT-negative breast cancer cell lines (summary); format: cell-based, human
Description: (§4) Depending on the cell line (and plating efficiency), 200-350 cells were seeded into each well of a 6-well plate. […] Thereafter, the drugs were removed, fresh growth medium was added, and the cells were kept in culture undisturbed for 12-16 days, during which time the surviving cells spawned colonies of descendants. Colonies (defined as groups of >50 cells) were visualized by staining for 4 hours with 1% methylene blue (in methanol), and then were counted.

[16] = tested on: MGMT-positive breast cancer cell lines; assay: Colony formation assay, MGMT-positive breast cancer cell lines (summary); format: cell-based; conditions: Homo sapiens; range over the three MGMT-positive lines
Description: as §4

[17] = Lipophilicity; format: physicochemical; conditions: data not shown; in words

Cn1nnc2c(C(N)=O)ncn2c1=O [TMZ, temozolomide, reference compound]
cytotoxicity (colony forming assay) [1]: minimal cytotoxicity | MGMT protein levels ([2]; MDA-MB-468, 50 μM, 17 hours): no effect | IC50 [3]: < 10 µM | half-life [4]: 1 to 2 h | drug levels in the cerebrospinal fluid (CSF) lower than in plasma [5]: 80%

C=C(C)[C@@H]1CC=C(COC(=O)NC(=O)c2ncn3c(=O)n(C)nnc23)CC1 [TMZ-POH]
cytotoxicity (colony forming assay) [1]: demonstrated cytotoxicity; also recorded: substantially greater potency compared to POH alone | cytotoxicity (MTT assay) [6]: demonstrated cytotoxicity | cytotoxicity (MTT assay) [7]: not towards normal astrocytes; also recorded: did not induce significant cytotoxicity | cytotoxicity (MTT assay) ([8]; confluent BEC): did not induce significant cytotoxicity | cytotoxicity (MTT assay) ([8]; subconfluent BEC, high concentrations): Mild to moderate cytotoxicity | cytotoxicity (MTT assay) [9]: did not induce significant cytotoxicity | IC50 [10]: 150 µM | concentration at which activation of the proapoptic protein CHOP was shown (as low as) ([11]; 18 hr treatment): 60 µM | ER stress (ERS) ([11]; TMZ sensitive and resistant U251, 18 hr, in words): induces ER stress | MGMT protein levels ([2]; MDA-MB-468, 50 μM, 17 hours): significant decrease | MGMT protein levels ([2]; MDA-MB-468, 17 hours): affects MGMT levels more potently than TMZ | levels of γ-H2AX [12]: substantially increased levels of γ-H2AX; also recorded: much stronger as compared to TMZ | phosphorylation of H2AX ([13]; without O6-BG): no increased phosphorylation of H2AX | levels of γ-H2AX ([13]; pre-treated with O6-BG (30 μM)): increased levels of γ-H2AX became readily apparent | active caspase 7 and cleaved PARP ([14]; MDA-MB-231, 15 μM, over 6 days): started to increase at day 3 | γ-H2AX expression levels ([14]; MDA-MB-231, 15 μM, over 6 days): pronounced increase in γ-H2AX expression levels | induction of γ-H2AX, activated caspase 7, and cleaved PARP ([14]; MDA-MB-231, 20 μM, after 5 days of treatment): induced quite prominently | IC50 ([15]; Homo sapiens, range over MGMT-negative cell lines): 1200 to 4600 nM | active in the range of ([15]; MGMT-negative cells): 1 to 5 µM | IC50 [16]: 31 to 33 µM | lipophilicity [17]: increased over TMZ
